According to patent US20230406859A1, “METHOTREXATE ANALOGS AND METHODS OF USE” (The United States of America, as represented by the …, priority 2020, published 2023):
Like-named read-outs stand apart in the source and are kept apart here.

What was measured:
HBL1 cell line = test: CellTiter-Glo cell viability (cytotox), HBL1 cell line, 72 hours; format: cell-based
Description: (§1) CellTiter-Glo viability assays: Five μL of cells (2500 cells) from the 12-well plate culture were plated into white 1536-well plates (Greiner, Monroe, NC, 789173-F) in 6 replicates. CellTiter-Glo Luminescent Cell Viability Assay (CTG) (Promega, G7572), 2.5 μL/well reagent was added with a BioRAPTR FRD (Beckman Coulter, Sykesville, MD), plates were incubated in the dark at ambient temperature for 10 min, and luminescence measured with a ViewLux 1430 Ultra HTS (Perkin Elmer, Waltham, MA).

[1] = tested on: MTX-resistant HBL1 cell line; format: cell-based
Description: as §1

[2] = molecular target: T1, human DHFR-HiBiT fusion protein (Homo sapiens, UniProt P00374); test: DHFR-HiBiT assay (high-throughput DHFR abundance) in HBL1 cells; format: cell-based; conditions: for Dmax: % change in untreated cellular DHFR level (control), negative = degradation, positive = stabilization, HBL1, 24 h, read-out: efficacy (%)
T1 construct: expressed in transfected cells; host or cells: HBL1 cells retrovirally infected with pBMN-Ires-Lyt-2 carrying DHFR-HiBiT
T1 sequence (P00374 with tags, fused parts or gaps): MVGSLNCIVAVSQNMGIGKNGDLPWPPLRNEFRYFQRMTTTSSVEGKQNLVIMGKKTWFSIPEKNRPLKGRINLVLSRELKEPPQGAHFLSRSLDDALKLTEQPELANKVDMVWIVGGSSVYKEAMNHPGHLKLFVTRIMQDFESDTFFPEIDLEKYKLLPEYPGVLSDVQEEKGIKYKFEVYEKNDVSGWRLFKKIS
Description: The human DHFR-HiBiT construct was synthetized (Bio Basic) and cloned into the retroviral vector pBMN-Ires-Lyt-2 (provided by G. Nolan, Stanford University, Stanford, CA) which expresses the coding region of mouse CD8a (Lyt-2) using the restriction sites BamHI/XhoI. All constructs were sequenced to validate authenticity. Infected cells were positively selected based on murine CD8a expression using magnetic beads (Miltenyi Biotech).
Cell culture: Human embryonic kidney HEK293T cells were maintained in DMEM (Gibco) supplemented with 10% fetal bovine serum (Hyclone), 2 mmol/L 1-glutamine, HEPES (Gibco) and 100 U/mL penicillin/streptomycin (Invitrogen). The lymphoma cell line HBL1 were maintained in RPMI (Life Technology) supplemented with 5% fetal bovine serum (Hyclone), 2 mmol/L L-glutamine, HEPES (Gibco) and 100 U/mL penicillin/streptomycin (Invitrogen).
Transfection and retroviral infections: Transfections were performed using Lipofectamine 2000 (Invitrogen) according to the manufacturer's protocol. For retroviral infections, viruses were produced in HEK293T cells and used to infect HBL1 cell line. […] Supernatants containing the retrovirus were collected and filtered at 48- and 72-hours post-transfection. HBL1 cells were centrifuged and then resuspended with the retroviral supernatant with 8 μg/ml of polybrene. The cells were spin-infected twice on consecutive days at 2,500 rpm, at RT, for 90 minutes.
Lytic HiBiT Detection: Cells were plated in solid white 1536-well tissue culture plates (Greiner), at the concentration of 2000 cells/well. After treatment, an equal volume of Nano-Glo HiBiT Lytic Reagent (Promega) containing the substrate furimazine and Large BiT (LgBiT) was added to the cells according to the manufacturer's protocol. Cells were incubated for 10 min at room temperature, and luminescence was measured using a Perkin Elmer ViewLux microplate imager with 30 seconds of exposure time.

HBL1 cells = test: CellTiter-Glo assay of cellular ATP levels in HBL1 cells (16 h); format: cell-based
Description: (§2) Cell Culture Methods: Cells (HBL1, immortalized fibroblasts from a healthy donor, or 293T) were seeded at the numbers indicated in a 12-well plate in 500 ul. […] Human embryonic kidney HEK293T cells and immortalized fibroblasts were maintained in DMEM (Gibco) supplemented with 10% fetal bovine serum (Hyclone), 2 mmol/L L-glutamine, Hepes (Gibco), and 100 U/mL penicillin/streptomycin (Invitrogen). The lymphoma cell line HBL1 was maintained in RPMI (Life Technology) supplemented with 5% fetal bovine serum (Hyclone), 2 mmol/L 1-glutamine, Hepes (Gibco), and 100 U/mL penicillin/streptomycin (Invitrogen). Cells were cultured in incubators maintained at 37° C., with 5% CO2 and 85% humidity.
as §1, with “Cell-Titer-Glo viability” for “CellTiter-Glo viability”

fibroblasts = test: CellTiter-Glo ATP levels in fibroblasts; format: cell-based
Description: as §2
as §1, with “Cell-Titer-Glo viability” for “CellTiter-Glo viability”

293T cells = test: CellTiter-Glo ATP levels in 293T cells; format: cell-based, human
Description: as §2
as §1, with “Cell-Titer-Glo viability” for “CellTiter-Glo viability”

[3] = molecular target: T2, thymidylate synthase (TS) (Homo sapiens, UniProt P04818); test: Western blot of thymidylate synthase levels in 293T cells; format: cell-based; conditions: 16 h
T2 sequence (P04818 2-313 limits assumed): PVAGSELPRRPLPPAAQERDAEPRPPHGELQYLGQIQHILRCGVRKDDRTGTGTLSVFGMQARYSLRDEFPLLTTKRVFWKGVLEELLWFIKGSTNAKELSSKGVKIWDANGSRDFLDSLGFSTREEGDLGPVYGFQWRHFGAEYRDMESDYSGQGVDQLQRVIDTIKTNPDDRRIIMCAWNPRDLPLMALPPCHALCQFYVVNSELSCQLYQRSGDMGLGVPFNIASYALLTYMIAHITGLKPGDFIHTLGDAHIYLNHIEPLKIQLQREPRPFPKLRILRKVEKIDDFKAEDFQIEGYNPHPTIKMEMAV

DHFR [4] = molecular target: T3, DHFR (Homo sapiens, UniProt P00374); format: cell-based; conditions: HBL1 cells, Western blot
T3 construct: Western blot detection of DHFR levels after treatment of HBL1 cells for 16 h; endogenous in cells; host or cells: HBL1 lymphoma cell line
T3 sequence (P00374 1-187): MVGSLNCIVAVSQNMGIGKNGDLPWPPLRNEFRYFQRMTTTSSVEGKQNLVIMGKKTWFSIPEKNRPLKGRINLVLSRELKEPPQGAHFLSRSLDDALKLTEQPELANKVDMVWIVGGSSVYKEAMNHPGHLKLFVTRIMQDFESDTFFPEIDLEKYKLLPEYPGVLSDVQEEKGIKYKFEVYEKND
Description: Human embryonic kidney HEK293T cells and immortalized fibroblasts were maintained in DMEM (Gibco) supplemented with 10% fetal bovine serum (Hyclone), 2 mmol/L L-glutamine, Hepes (Gibco), and 100 U/mL penicillin/streptomycin (Invitrogen). The lymphoma cell line HBL1 was maintained in RPMI (Life Technology) supplemented with 5% fetal bovine serum (Hyclone), 2 mmol/L 1-glutamine, Hepes (Gibco), and 100 U/mL penicillin/streptomycin (Invitrogen).
Western blotting: Cells at confluence from 12-well plate treatments were washed with PBS and lysed in 75 μL/well NP40 lysis buffer (Cell Signaling), subjected to agitation and centrifugation. Approximately 100 μg of total protein was used per analysis. […] Blots were first incubated with 1:2000 dilution of anti-human DHFR antibody (Abcam, ab124814, host rabbit) for 16 h at 4° C. with shaking, washed 3× with TBS-T and incubated with 1:2000 dilution of anti-human β-actin primary antibody (Cell Signaling, host mouse) for 1 h at ambient temperature with shaking. Blots were then washed 3× with TBS-T and incubated with 1:5000 HRP secondary antibody (Novex, anti-Rabbit IgG raised in Goat, 1 mg/ml) for 1 h at ambient temperature, then washed with 3×TBS-T and developed with Pierce ECL Dura reagent for 5 min. Immunoreactive bands were imaged on a ChemiDoc Imaging System (Bio-Rad) with 20 s chemiluminescence exposure. The molecular weight marker ladder was imaged with colorimetric auto-exposure, and both images merged.

[5] = molecular target: T2, thymidylate synthase (TS); test: Western blot of thymidylate synthase levels in fibroblasts; format: cell-based; conditions: 16 h
[6] = molecular target: T2, thymidylate synthase (TS); test: Western blot of thymidylate synthase levels in HBL1 cells; format: cell-based; parameters: Western blot detection of folate-cofactor dependent enzyme levels after treatment of HBL1 cells; endogenous in cells; host or cells: HBL1 lymphoma cell line; conditions: 1 μM, 16 h
DHFR [7] = molecular target: T3, DHFR; test: Western blot detection of DHFR levels in fibroblasts; format: cell-based; conditions: 16 h at 1 μM
Description: as §2
(§3) Western blotting: Cells at confluence from 12-well plate treatments were washed with PBS and lysed in 75 μL/well NP40 lysis buffer (Cell Signaling), subjected to agitation and centrifugation. Approximately 100 μg of total protein was used per analysis. Proteins were sized on a NuPAGE 12% Bis-Tris Gel, 1.0 mm×10 wells, proteins transferred to 0.2 μm nitrocellulose membrane for 60 min followed by blocking with 5% t milk in TBS-T for 1 h at ambient temperature with gentle shaking. […]

DHFR [8] = molecular target: T3, DHFR; test: Western blot detection of DHFR levels in 293T cells; format: cell-based; conditions: 16 h at 1 μM
Description: as §2, §3

[9] = HBL1 cell line, CellTiter-Glo, unit inferred

| SMILES | IC50 (HBL1 cell line; [9]) [nM] | cellular toxicity in MTX-resistant HBL1 cell line [1] | Dmax [2] [%] | effect on TS protein level [3] | effect on DHFR protein levels (DHFR [4]) | effect on TS protein level [5] | effect on TS protein level [6] | effect on DHFR protein levels (DHFR [7]) | also measured |
| --- | --- | --- | --- | --- | --- | --- | --- | --- | --- |
| CN(Cc1cnc2nc(N)nc(N)c2n1)c1ccc(C(=O)NC(CC(F)C(=O)O)C(=O)O)cc1 (stereo not drawn) [FMTX, 2-(4-(((2,4-diaminopteridin-6-yl)methyl)(methyl)amino)benzamido)-4-fluoropentanedioic acid, reference compound] | 1100 | greatly decreased | -115 | – | – | – | – | – | DC50 ([2]; HBL1 cells expressing DHFR-HiBiT, 24 h, degradation or stabilization potency, average of N = 2-5, read-out: Ave EC50): 280 nM |
| CN(Cc1cnc2nc(N)nc(N)c2n1)c1ccc(C(=O)N[C@@H](CCC(=O)O)C(=O)O)cc1 [MTX, (4-(((2,4-diaminopteridin-6-yl)methyl)(methyl)amino)benzoyl)-L-glutamic acid, reference compound] | – | greatly decreased | – | – | – | – | – | – | IC50 (HBL1 cell line): 57.1 nM; effect on cellular ATP levels (acute cellular toxicity) (HBL1 cells): significantly depleted ATP levels; IC50 (HBL1 cells; HBL1, 16 h, read-out: IC50 for cellular ATP-depletion): ~200 nM; effect on ATP levels (fibroblasts): ATP-depleting properties; effect on ATP levels (293T cells): ATP-depleting properties |
| CN(Cc1cnc2nc(N)nc(N)c2n1)c1ccc(C(=O)N[C@@H](CCC(=O)NCCCCCCCCNc2cccc3c2C(=O)N(C2CCC(=O)NC2=O)C3=O)C(=O)O)cc1 (stereo partly drawn) [NCGC00685928, N2-(4-(((2,4-diaminopteridin-6-yl)methyl)(methyl)amino)benzoyl)-N5-(8-((2-(2,6-dioxopiperidin-3-yl)-1,3-dioxoisoindolin-4-yl)amino)octyl)-L-glutamine] | 23700 | – | 65 | no significant change in TS levels | robust DHFR depletion | low but detectable increases in TS | slight increase in TS | – | – |
| CN(Cc1cnc2nc(N)nc(N)c2n1)c1ccc(C(=O)N[C@@H](CCC(=O)NCCCNc2cccc3c2C(=O)N(C2CCC(=O)NC2=O)C3=O)C(=O)O)cc1 (stereo partly drawn) [NCGC00685938, N2-(4-(((2,4-diaminopteridin-6-yl)methyl)(methyl)amino)benzoyl)-N5-(3-((2-(2,6-dioxopiperidin-3-yl)-1,3-dioxoisoindolin-4-yl)amino)propyl)-L-glutamine] | 1660 | – | – | no significant change in TS levels | essentially inactive | low but detectable increases in TS | slight increase in TS | significant degradation of DHFR | effect on DHFR protein levels (DHFR [8]): essentially inactive |
| Cc1ncsc1-c1ccc(CNC(=O)C2C[C@@H](O)CN2C(=O)C(NC(=O)COCCOCCOCCOCCNC(=O)CC[C@H](NC(=O)c2ccc(N(C)Cc3cnc4nc(N)nc(N)c4n3)cc2)C(=O)O)C(C)(C)C)cc1 (stereo partly drawn) [NCGC00685964, (23S)-23-(4-(((2,4-diaminopteridin-6-yl)methyl)(methyl)amino)benzamido)-3-((4R)-4-hydroxy-2-((4-(4-methylthiazol-5-yl)benzyl)carbamoyl)pyrrolidine-1-carbonyl)-2,2-dimethyl-5,20-dioxo-7,10,13,16-tetraoxa-4,19-diazatetracosan-24-oic acid] | 21500 | – | – | – | no alterations in DHFR protein levels | – | – | – | – |
| Cc1ncsc1-c1ccc(CNC(=O)C2C[C@@H](O)CN2C(=O)C(NC(=O)COCCOCCNC(=O)CC[C@H](NC(=O)c2ccc(N(C)Cc3cnc4nc(N)nc(N)c4n3)cc2)C(=O)O)C(C)(C)C)cc1 (stereo partly drawn) [NCGC00685995, (17S)-17-(4-(((2,4-diaminopteridin-6-yl)methyl)(methyl)amino)benzamido)-3-((4R)-4-hydroxy-2-((4-(4-methylthiazol-5-yl)benzyl)carbamoyl)pyrrolidine-1-carbonyl)-2,2-dimethyl-5,14-dioxo-7,10-dioxa-4,13-diazaoctadecan-18-oic acid] | 20200 | – | – | – | no alterations in DHFR protein levels | – | – | MTX-like stabilization of DHFR | effect on ATP levels (fibroblasts; fibroblasts, CellTiter-Glo): not observed; effect on ATP levels (293T cells; 293T cells, CellTiter-Glo): not observed |
